Measurements taken from patent publication US6403805B1 (Janssen Pharmaceutica N.V., priority 1995, dated 2002).
Counter-ions that a name gives are not always drawn.

What was measured:
[1] = system: dextran-induced oedema formation in mouse ear; test: Dextran-induced oedema formation in mouse ear; assay type: in vivo, Male Swiss mice; conditions: Mus musculus, 1 h; oral dose of 5 mg/kg in PEG-200, one hour before i.v. dextran T500/pontamine sky-blue; vs background blueing value; read-out: % inhibition of the extravasation of the dye
Procedure: Dextran-induced oedema formation in mouse ear Systemic injection of dextran T500 in normal, non-sensitized mice elicits increased vascular permeability, leading to extravasation and oedema of the extremities. When dextran is injected together with a blue dye, blueing of the ears is the most prominent feature of oedematous response. Male Swiss mice weighting 24-26 g were orally pretreated with the test compound dissolved in PEG-200 at different concentrations or solvent. One hour later, the mice were given an intravenous injection with an isotonic saline solution containing 12 mg/ml dextran T500 and 2.6 mg/ml pontamine sky-blue dye, in a volume of 0.1 ml per 10 g body weight. One hour and forty-five minutes later, the animals are sacrificed by ether and their ears removed. Extraction and quantification of the extravasated dye is done as described by Van Wauwe and Goossens (Drug Dev. Res. 1986, 8, 213-218). The extravasation of the dye is characterized by the blueing value which is defined as the concentration of the extracted dye in both ears. The background blueing value was determined once as the mean blueing value obtained by injecting a group of mice with a saline solution containing only dextran T500 and the blue dye. Table 6 lists the percentage inhibition of the extravasation of the dye when compared with the background extravasation of the dye when the test compound was administered at a dose of 5 mg/kg. The test compounds indicated by an asterisk (*) were tested at a dose of 2.5 mg/kg

[2] = molecular target: T1, recombinant human MNL phosphodiesterase type IV B (Homo sapiens, UniProt Q07343); test: Inhibition of recombinant human mononuclear lymphocyte (MNL) phosphodiesterase type IV B produced in insect cells with a baculovirus vector; assay type: biochemical; conditions: recombinant human MNL PDE IV B; 0.8 μM 3H-cAMP, pH 8, 37° C.; calculated graphically
T1 construct: made in house; host or cells: insect cells infected with recombinant baculovirus
T1 sequence (Q07343 whole entry): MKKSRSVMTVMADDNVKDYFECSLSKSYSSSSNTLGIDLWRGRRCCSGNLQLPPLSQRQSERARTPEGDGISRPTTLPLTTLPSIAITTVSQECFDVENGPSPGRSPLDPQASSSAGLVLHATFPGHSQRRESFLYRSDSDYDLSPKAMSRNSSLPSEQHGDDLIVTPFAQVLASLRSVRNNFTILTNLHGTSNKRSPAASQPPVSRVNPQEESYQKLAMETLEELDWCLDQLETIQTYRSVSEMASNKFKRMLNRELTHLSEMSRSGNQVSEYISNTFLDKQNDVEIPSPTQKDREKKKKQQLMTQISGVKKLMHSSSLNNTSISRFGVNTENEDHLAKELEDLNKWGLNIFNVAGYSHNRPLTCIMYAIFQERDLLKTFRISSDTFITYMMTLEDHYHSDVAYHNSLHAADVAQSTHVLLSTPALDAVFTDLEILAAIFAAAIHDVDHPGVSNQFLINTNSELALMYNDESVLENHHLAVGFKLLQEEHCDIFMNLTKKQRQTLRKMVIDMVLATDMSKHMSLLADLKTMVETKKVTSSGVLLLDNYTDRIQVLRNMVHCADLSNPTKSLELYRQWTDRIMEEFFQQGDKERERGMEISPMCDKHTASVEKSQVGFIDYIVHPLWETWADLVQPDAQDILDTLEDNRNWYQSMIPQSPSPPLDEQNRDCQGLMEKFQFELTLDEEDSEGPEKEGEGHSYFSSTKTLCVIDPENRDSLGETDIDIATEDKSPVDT
Procedure: Inhibition of recombinant human mononuclear lymphoctye (MNL) phosphodiesterase type IV B produced in insect cells with a baculovirus vector
The alleviating and/or curing effect of the instant compounds on allergic and atopic diseases was assessed by an in vitro assay system to detect an inhibiting effect on the recombinant human MNL phosphodiesterase type IV B.
Seventy-two hours after infection with recombinant baculovirus, the insect cells were harvested and pelleted at 500 g for 5 minutes. The cells were lysed in 10 ml lysis-buffer consisting of 20 mM Tris, 10 mM EGTA, 2 mM Na2EDTA, 1% Triton-X-100, 1 mM Na3VO4, 10 mM NaF, 2 μg/ml of leupeptine, pepstatine and aprotinine, 0.3 μg/ml benzamidine and 100 μg/ml TPCK pH 7.5. After 5 minutes on ice, solubilized cells were centrifuged at 4000 rpm for 15 minutes at 4° C. The resulting supernatant was filtered through a 0.45 μm filter (Millipore) and brought to TBS buffer (50 mM Tris, 150 mM NaCl pH 7.4).
After washing the column with equilibration buffer, PDE IV was eluted in 1.5 ml fractions containing 37.5 μl 1M Tris pH 8. The fractions were dialyzed overnight against 20 mM Tris, 2 mM Na2EDTA and 400 mM NaCl pH 7.5 and tested for PDE IV activity. Identification was done on SDS PAGE and Western Blot (anti-FLAG-M2). Active fractions were pooled, brought to 10% glycerol and stored at −70° C.
The incubation mixture (pH 8) (200 μl) contained 20 mM Tris, 10 mM magnesium sulphate, 0.8 μM ^3H-cAMP (310 mCi/mmole) and the phosphodiesterase type IV, the amount depending on the enzymatic activity.
When the effect of different compounds on phosphodiesterase activity was tested, the medium without cAMP was incubated with the compound(s) or its carrier (DMSO-1% final concentration) for 5 min. The enzymatic reaction was started by addition of ^3H-cAMP and stopped 10 min later after transferring the microtiter-plate in a waterbath at 100° C. for 5 min. After cooling to room temperature, alkaline phosphatase (0.25 μg/ml) was added and the mixture was incubated at 37° C. for 20 min. 100 μl of the mixture was subsequently applied to a GF-B filter-microtiter-plate (Millipore) filled with 300 μl DEAE-Sephadex-A25 suspension. The plate was washed 3 times with 75 μl 20 mM Tris pH 7.5 and the filtrates were collected for counting in the Packard Top Count scintillation counter.
The inhibiting effect of the present compounds on recombinant human MNL phosphodiesterase PDE IV B was measured at different concentrations of the instant compounds. The IC50 values (expressed in M) were calculated graphically from the thus obtained inhibition values.

Row | melting point [°C] | IC50 [2] [nM] | SMILES | inhibition in vivo at 5 mg/kg [1] [%]
1 | 110.5 |  | COc1ccc(C2(Cn3ccn(Cc4ccccc4)c3=O)CC2)cc1OC [Compound 21, 1-[[1-(3,4-dimethoxyphenyl)cyclopropyl]methyl]-1,3-dihydro-3-(phenylmethyl)-2H-imidazol-2-one] | 
2 | 136.2 | 290 | COc1ccc(C(C)(O)Cn2cc[nH]c2=O)cc1OC1CCCC1 (racemic) [Compound 12, (±)-1-[2-[3-(cyclopentyloxy)-4-methoxyphenyl]-2-hydroxypropyl]-1,3-dihydro-2H-imidazol-2-one] | 87.5
3 | 156.4 |  | COc1ccc(C(CN2CCN(Cc3ccccc3)C2=O)NC(C)=O)cc1OC (racemic) [Compound 14, (±)-N-[1-(3,4-dimethoxyphenyl)-2-[2-oxo-3-(phenylmethyl)-1-imidazolidinyl]ethyl]acetamide] | 32.3
4 | 133.6 |  | CCOC(Cn1cc[nH]c1=O)c1ccc(OC)c(OC)c1 (racemic) [Compound 15, (±)-1-[2-(3,4-dimethoxyphenyl)-2-ethoxyethyl]-1,3-dihydro-2H-imidazol-2-one] | 
5 | 221.7 |  | COc1ccc(C(N)CN2CCN(Cc3ccccc3)C2=O)cc1OC (racemic) (as salt: hydrochloric acid salt) [Compound 11, (±)-1-[2-amino-2-(3,4-dimethoxyphenyl)ethyl]-3-(phenylmethyl)-2-imidazolidinone] | 
